# Measured values: patent US8569331B2 (ArQule, Inc., priority 2010, dated 2013)
# Counter-ions that a name gives are not always drawn.
# Molecular target: T1, AKT1 (Homo sapiens, UniProt P31749)
# T1 construct: Full-length non-phosphorylated AKT1 is diluted in assay buffer
# Experiment: AKT1 Alpha Screen Assay
# Format: biochemical
# Conditions: full-length non-phosphorylated AKT1 8 nM, activated by PDK1 and MAPKAPK2, lipid vesicles, 50 μM ATP; biotinylated crosstide substrate; AlphaScreen
# Experimental: AKT1 activity is assayed using the GSK3-derived biotinylated peptide substrate, crosstide (biotin-[…]), and AlphaScreen™ (Amplified Luminescent Proximity Homogeneous Assay) technology. AKT1 activation is achieved by the addition of the activating kinases PDK1 and MAPKAPK2, lipid vesicles, and ATP. The extent of peptide phosphorylation is determined using a phospho-AKT substrate antibody and acceptor beads conjugated to Protein A and donor beads conjugated to streptavidin that will bind to the biotin on the peptide. Excitation of the donor beads converts ambient oxygen to excited singlet oxygen which, when in close proximity to acceptor beads, reacts with acceptor beads resulting in signal amplification.
# Test inhibitors and controls are prepared in 10% DMSO at 10-fold the desired final concentration, and added to each well of a reaction plate (Corning 96-well half-area solid white nonbinding surface plate) in a volume of 2.5 μL. Full-length non-phosphorylated AKT1 is diluted in assay buffer (50 mM Tris, pH 8.0, 0.02 mg/mL BSA, 10 mM MgCl2, 1 mM EGTA, 10% glycerol, 0.2 mM Na3VO4, 1 mM DTT, 0.1 mM β-glycerophosphate, and 0.2 mM NaF) and added to each well in a volume of 17.5 μL for a final concentration in the 25 μL reaction of 8 nM (Akt1). […] Assay plates are incubated for 90 minutes at room temperature in the dark, and the plates are read on a Perkin Elmer Envision Multilabel plate reader (excitation wavelength: […], emission wavelength: 570 nm).
# Reaction conditions: 2.5 μL 10× Akt inhibitor in 10% DMSO; 17.5 μL non-phosphorylated Akt or buffer for blank; 20 minute pre-incubation at room temperature; 5 μL Reaction Mix (5×ATP, 5×substrate, 5×PDK1, 5×MK2, and 5× lipid vesicle mixture); 30 minute incubation at room temperature; 10 μL Detection Buffer; 90 minute incubation at room temperature and Detection (excitation: 640 nm, emission: 570 nm).
# T1 sequence (P31749 whole entry): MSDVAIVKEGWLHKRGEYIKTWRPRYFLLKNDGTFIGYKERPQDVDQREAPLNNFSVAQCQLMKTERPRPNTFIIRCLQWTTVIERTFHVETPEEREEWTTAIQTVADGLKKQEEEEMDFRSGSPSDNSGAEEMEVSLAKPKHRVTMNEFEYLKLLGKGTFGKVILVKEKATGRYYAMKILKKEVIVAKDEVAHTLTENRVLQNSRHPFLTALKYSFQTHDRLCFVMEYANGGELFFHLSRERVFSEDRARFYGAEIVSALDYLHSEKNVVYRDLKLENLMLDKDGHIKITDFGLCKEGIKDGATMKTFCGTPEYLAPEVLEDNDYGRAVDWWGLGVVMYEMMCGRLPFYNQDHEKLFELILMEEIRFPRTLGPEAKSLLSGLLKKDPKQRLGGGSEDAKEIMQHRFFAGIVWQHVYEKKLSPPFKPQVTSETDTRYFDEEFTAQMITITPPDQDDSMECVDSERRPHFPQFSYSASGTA
row,IC50 [nM],Compound
1,28,NC1(c2ccc(-c3c(-c4ccoc4)nc4n3-c3cccnc3Nc3ccccc3-4)cc2)CCC1 [Example 9]
2,14,NC1(c2ccc(-c3c(-c4cnccn4)nc4n3-c3cccnc3Nc3ccccc3-4)cc2)CCC1 [Example 15]
3,3,"Nc1ncc(-c2nc3n(c2-c2ccc(C4(N)CCC4)cc2)-c2cccnc2Nc2ccccc2-3)cn1 [Example 31, trihydrochloride]"
4,27,COc1ncc(-c2nc3n(c2-c2ccc(C4(N)CCC4)cc2)-c2cccnc2Nc2ccccc2-3)s1 [Example 68]
5,343,Cn1nccc1-c1nc2n(c1-c1ccc(C3(N)CCC3)cc1)-c1cccnc1Nc1ccccc1-2 [Example 70]
6,73,NC1(c2ccc(-c3c(-c4cccs4)nc4n3-c3cccnc3Nc3ccccc3-4)cc2)CCC1 [Example 83]
7,83,COc1ccc(-c2nc3n(c2-c2ccc(C4(N)CCC4)c(F)c2)-c2cccnc2Nc2ccccc2-3)cc1 [Example 127]
8,53,NC1(c2ccc(-c3c(-c4ccc(F)cc4)nc4n3-c3cccnc3Nc3ccccc3-4)cc2)CCC1 [Example 134]
9,119,NC1(c2ccc(-c3c(-c4ccc(F)cc4)nc4n3-c3cccnc3Nc3ccccc3-4)cc2F)CCC1 [Example 135]
10,84,NC1(c2ccc(-c3c(-c4ccccc4F)nc4n3-c3cccnc3Nc3ccccc3-4)cc2)CCC1 [Example 136]
11,168,NC1(c2ccc(-c3c(-c4ccccc4F)nc4n3-c3cccnc3Nc3ccccc3-4)cc2F)CCC1 [Example 137]
12,53,NC1(c2ccc(-c3c(-c4ccc(-c5ccccc5)cc4)nc4n3-c3cccnc3Nc3ccccc3-4)cc2)CCC1 [Example 138]
13,74,NC1(c2ccc(-c3c(-c4cccc(F)c4)nc4n3-c3cccnc3Nc3ccccc3-4)cc2)CCC1 [Example 139]
14,295,NC1(c2ccc(-c3c(-c4cccc(F)c4)nc4n3-c3cccnc3Nc3ccccc3-4)cc2F)CCC1 [Example 140]
15,451,Cc1ccccc1-c1nc2n(c1-c1ccc(C3(N)CCC3)cc1)-c1cccnc1Nc1ccccc1-2 [Example 141]
16,485,Cc1ccccc1-c1nc2n(c1-c1ccc(C3(N)CCC3)c(F)c1)-c1cccnc1Nc1ccccc1-2 [Example 142]
17,122,NCc1ccc(-c2c(-c3ccccc3)nc3n2-c2cccnc2Nc2ccccc2-3)cc1 [Example 143]
18,184,NC1(c2ccc(-c3nc4n(c3-c3ccccc3)-c3cccnc3Nc3ccccc3-4)cc2)CCC1 [Example 144]
19,> 1000,NC1(c2ccc(-c3c(CC(=O)Nc4ccccc4)nc4n3-c3cccnc3Nc3ccccc3-4)cc2)CCC1 [Example 145]
20,> 1000,Cc1cccc(NC(=O)Cc2nc3n(c2-c2ccc(C4(N)CCC4)cc2)-c2cccnc2Nc2ccccc2-3)n1 [Example 146]
21,46,C[C@H](N)c1ccc(-c2c(-c3ccccc3)nc3n2-c2cccnc2Nc2ccccc2-3)cc1 [Example 147]
22,66,C[C@@H](N)c1ccc(-c2c(-c3ccccc3)nc3n2-c2cccnc2Nc2ccccc2-3)cc1 [Example 148]
23,18,NCc1ccc(-c2nc3n(c2-c2ccc(C4(N)CCC4)cc2)-c2cccnc2Nc2ccccc2-3)cc1 [Example 149]
24,3,NC1(c2ccc(-c3c(-c4nccs4)nc4n3-c3cccnc3Nc3ccccc3-4)cc2)CCC1 [Example 150]
25,4,NC1(c2ccc(-c3c(-c4ncco4)nc4n3-c3cccnc3Nc3ccccc3-4)cc2)CCC1 [Example 151]
